The text below walks through data of patent publication US20250019385A1, “SPIROCYCLIC ANNULATED 2-AMINO-3-CYANO THIOPHENES AND DERIVATIVES FOR THE TREATMENT OF CANCER” (Boehringer Ingelheim International GmbH, priority 2023, published 2025).

In series [1] the test system is SK-CO-1 cells. Briefly: SK-CO-1 CTG proliferation assay (120 h) (CRC, G12V). In kind it is cell-based. The note with it: Homo sapiens. The procedure: (§1) SK—CO-1 cells (ATCC HTB-39) are dispensed into black 384-well plates, flat and clear bottom (Greiner, PNr. 781091) at a density of 500 cells per well in 60 μl EMEM (Sigma M5650)+10% FCS (fetal calf serum, HyClone, SH30084.03). Cells are incubated overnight at 37° C. in a humidified tissue culture incubator at 5% CO2. Compounds (10 mM stock in DMSO) are added at logarithmic dose series using the ECHO acoustic liquid handler system (Beckman Coulter), normalizing for added DMSO and including DMSO controls. All compound treatments are performed in technical duplicates. For the TO time point measurement, untreated cells are analyzed at the time of compound addition. Plates are incubated for 120 h, and cell viability is measured using CellTiter-Glo luminescent cell viability reagent (Promega product code G7570). Viability (stated as percent of control) is defined as relative luminescence units RLU of each well divided by the RLU of cells in DMSO controls. IC50 values are determined from viability measurements by non-linear regression using a four-parameter model.
(§2) IC50 values of representative compounds according to the invention measured with these assays in the indicated cell lines are presented in Table 46.

A short description of series [2]: Metabolic (microsomal) stability assay, human liver microsomes (HLM). In kind it is in vitro ADME. The note with it: 1 μM test compound, predicted clearance as percent of liver blood flow. The procedure: The metabolic degradation of the test compound is assayed at 37° C. with pooled liver microsomes (mouse (MLM), rat (RLM) or human (HLM)). The final incubation volume of 48 μL per time point contains TRIS buffer (pH 7.5; 0.1 M), magnesium chloride (6.5 mM), microsomal protein (0.5 mg/mL for mouse/rat, 1 mg/mL for human specimens) and the test compound at a final concentration of 1 μM. Following a short preincubation period at 37° C., the reactions are initiated by addition of 12 μL beta-nicotinamide adenine dinucleotide phosphate, reduced form (NADPH, 10 mM) and terminated by transferring an aliquot into solvent after different time points (0, 5, 15, 30, 60 min). Additionally, the NADPH-independent degradation is monitored in incubations without NADPH, terminated at the last time point by addition of acetonitrile. The quenched incubations are pelleted by centrifugation (4,000 rpm, 15 min). An aliquot of the supernatant is assayed by LC-MS/MS to quantify the concentration of parent compound in the individual samples.
In vitro intrinsic clearance (CLint,in vitro) is calculated from the time course of the disappearance of the test drug during the microsomal incubation. Each plot is fitted to the first-order elimination rate constant as C(t)=C0*exp(−ke*t), where C(t) and C0 are the concentration of unchanged test drug at incubation time t and that at preincubation and ke is the disappearance rate constant of the unchanged drug. Subsequently, CLint, in vitro (μL min^−1·amount protein) values are converted to predicted CLint,in vivo (mL min^−1·kg^−1) from incubation parameters according to the equation CLint, in vivo=CLint, in vitro×(incubation volume (mL)/amount protein (mg))×(amount protein (mg)/g liver tissue)×(liver weight/body wt.).
For better across species comparison the predicted clearance is expressed as percent of the liver blood flow [% QH] (mL min^−1·kg^−1) in the individual species. In general, high stability (corresponding to low % QH) of the compounds across species is desired.

The subject of series [3] is NCI-H358 cells. Briefly: NCI-H358 CTG proliferation assay (120 h) (NSCLC, G12C). In kind it is cell-based. The note with it: Homo sapiens. Here is the method: as §1, with “NCI-H358” for “SK—CO-1”, “No. CRL-5807)” for “HTB-39)”, “200” for “500”, “RPMI-1640 ATCC-Formulation (Gibco #A10491)+10%” for “EMEM (Sigma M5650)+10%”, “serum).” for “serum, HyClone, SH30084.03).”
as §2

Series [4] deals with LOVO cells. Briefly: LOVO CTG proliferation assay (120 h) (CRC, G13D). In kind it is cell-based. The note with it: Homo sapiens. Here is the method: as §1, with “LOVO” for “SK—CO-1”, “No. CCL-229)” for “HTB-39)”, “1000” for “500”, “DMEM” for “EMEM”, “D6429)+10%” for “M5650)+10%”
as §2

Series [5] concerns NCI-H727 cells. Briefly: NCI-H727 CTG proliferation assay (120 h) (lung cancer, G12V). In kind it is cell-based. The note with it: Homo sapiens. Here is the method: as §1, with “NCI-H727” for “SK—CO-1”, “No. CRL-5815)” for “HTB-39)”, “RPMI ATCC-Formulation (PAN P04-18047)+10%” for “EMEM (Sigma M5650)+10%”
as §2

As a reminder, the IC50 is the concentration that inhibits the measured activity by half. High values mean lower potency, low ones higher potency.

`COCCn1c(=O)n(C)c2c(O[C@@H](C)[C@@H]3CCCN3C)nc(-c3onc4c3CCC[C@@]43CCCc4sc(N)c(C#N)c43)nc21` [I-7]: the IC50 in series [1] was 190 nM; in series [3], 124 nM; in series [4], 563 nM; in series [5], 348 nM. In addition, the “HLM QH” value in series [2] was less than 24%.

For the molecule `C[C@H](Oc1nc(-c2onc3c2CCC[C@@]32CCCc3sc(N)c(C#N)c32)nc2c1[nH]c(=O)n2[C@@H]1CCOC1)[C@@H]1CCCN1C` [I-8], the IC50 turned out to be 19 nM in series [1], 9 nM in series [3], 258 nM in series [4] and 12 nM in series [5]. Moreover, the “HLM QH” value in series [2] is reported as less than 24%.

For `C[C@H](Oc1nc(-c2onc3c2CCC[C@@]32CCCc3sc(N)c(C#N)c32)nc2c1n(C)c(=O)n2[C@H]1CCOC1)[C@@H]1CCCN1C` [I-9], the IC50 was found to be 75 nM in series [1], 52 nM in series [3], 90 nM in series [4] and 138 nM in series [5]. Further, in series [2], the “HLM QH” value is listed as less than 24%.

For the molecule `C[C@H](Oc1nc(-c2onc3c2CCC[C@@]32CCCc3sc(N)c(C#N)c32)nc2c1n(C)c(=O)n2C1CCOCC1)[C@@H]1CCCN1C` [I-10], the IC50 was 69 nM in series [1], 42 nM in series [3], 53 nM in series [4] and 108 nM in series [5]. Besides, the “HLM QH” value in series [2] is 33%.

On to `C[C@H](Oc1nc(-c2onc3c2CCC[C@@]32CCCc3sc(N)c(C#N)c32)nc2c1n(C)c(=O)n2[C@@H]1CCCOC1)[C@@H]1CCCN1C` [I-12], for which the IC50 amounted to 5 nM in series [1], 6 nM in series [3], 19 nM in series [4] and 3 nM in series [5]. In series [2], the “HLM QH” value was less than 24%.

Regarding `C[C@H](Oc1nc(-c2onc3c2CCC[C@@]32CCCc3sc(N)c(C#N)c32)nc2c1[nH]c(=O)n2[C@@H]1CCCOC1)[C@@H]1CCCN1C` [I-13], the IC50 turned out to be 48 nM in series [1], 9 nM in series [3], 39 nM in series [4] and 13 nM in series [5]. In addition, the “HLM QH” value in series [2] was less than 24%.

Consider `CO[C@@H]1C[C@@H]([C@H](C)Oc2nc(-c3onc4c3CCC[C@@]43CCCc4sc(N)c(C#N)c43)nc3c2n(C)c(=O)n3[C@@H]2CCCOC2)N(C)C1` [I-14], for which the IC50 in series [1] came out at 7 nM; in series [3] it was 9 nM; in series [4], 6 nM; in series [5] it was 6 nM. The “HLM QH” value in series [2] is on record as 27%.

On to `C[C@H](Oc1nc(-c2onc3c2CCC[C@@]32CCCc3sc(N)c(C#N)c32)nc2c1n(C)c(=O)n2C12COC(C1)C2)[C@@H]1CCCN1C` [I-15], for which the IC50 in series [1] worked out at 36 nM; in series [3] it was 11 nM; in series [4] it was 7 nM; in series [5] it was 14 nM. The “HLM QH” value in series [2] is reported as less than 24%.

Consider `CO[C@H]1C[C@H](n2c(=O)n(C)c3c(O[C@@H](C)[C@@H]4CCCN4C)nc(-c4onc5c4CCC[C@@]54CCCc5sc(N)c(C#N)c54)nc32)C1` [I-16], for which the half-inhibitory concentration (IC50) in series [1] is 243 nM; in series [3] it was 141 nM; in series [4], 404 nM; in series [5], 152 nM. Further, the “HLM QH” value in series [2] is listed as less than 24%.

In the case of `C[C@H](Oc1nc(-c2onc3c2CCC[C@@]32CCCc3sc(N)c(C#N)c32)nc2c1n(C)c(=O)n2[C@H]1CC2CCC1O2)[C@@H]1CCCN1C` (some centres unmarked) [I-17], the IC50 in series [1] is 83 nM; in series [3], 20 nM; in series [4], 14 nM; in series [5], 48 nM. Also, the “HLM QH” value in series [2] is less than 24%.

`C[C@H](Oc1nc(-c2onc3c2CCC[C@@]32CCCc3sc(N)c(C#N)c32)nc2c1n(C)c(=O)n2[C@@H]1CC2CCC1O2)[C@@H]1CCCN1C` (some centres unmarked) [I-18]: the IC50 in series [1] turned out to be 362 nM; in series [3], 239 nM; in series [4], 49 nM; in series [5] it was 170 nM. For the same molecule, the “HLM QH” value in series [2] is 31%.

Take `C[C@H](Oc1nc(-c2onc3c2CCC[C@@]32CCCc3sc(N)c(C#N)c32)nc2c1n(C)c(=O)n2[C@H]1CCC[C@@H]1O)[C@@H]1CCCN1C` [I-19]: the IC50 in series [1] came to 190 nM; in series [3], 201 nM; in series [4], 60 nM; in series [5], 116 nM. Also, the “HLM QH” value in series [2] is on record as less than 24%.

As for `C[C@H](Oc1nc(-c2onc3c2CCC[C@@]32CCCc3sc(N)c(C#N)c32)nc2c1n(C)c(=O)n2[C@@H]1CCOC1)[C@@H]1CCCN1C` [I-20], the IC50 in series [1] is 3 nM; in series [3], 4 nM; in series [4], 6 nM; in series [5], 2 nM. For the same molecule, the “HLM QH” value in series [2] is on record as 26%.

With `CCn1c(=O)n([C@@H]2CCOC2)c2nc(-c3onc4c3CCC[C@@]43CCCc4sc(N)c(C#N)c43)nc(O[C@@H](C)[C@@H]3CCCN3C)c21` [I-21], the IC50 in series [1] came out at 5 nM; in series [3], 3 nM; in series [4], 9 nM; in series [5], 4 nM. Moreover, in series [2], the “HLM QH” value was 45%.

In the case of `C[C@H](Oc1nc(-c2onc3c2CCC[C@@]32CCCc3sc(N)c(C#N)c32)nc2c1n(C)c(=O)n2[C@@H]1CCOC1)[C@@H]1C[C@@H](F)CN1C` [I-22], the IC50 worked out at 9 nM in series [1], 7 nM in series [3], 43 nM in series [4] and 6 nM in series [5]. The “HLM QH” value in series [2] was 56%.

On to `CO[C@H]1CCN(C)[C@@H]1[C@H](C)Oc1nc(-c2onc3c2CCC[C@@]32CCCc3sc(N)c(C#N)c32)nc2c1n(C)c(=O)n2[C@@H]1CCOC1` [I-23], for which the IC50 was determined as 6 nM in series [1], 4 nM in series [3], 10 nM in series [4] and 3 nM in series [5]. Also, the “HLM QH” value in series [2] is given as 77%.
